Values quoted from earlier work as cited in PMC6595297 (British Journal of Clinical Pharmacology, 2019).

Test system: human P‐gp transport function
Settings: cited from earlier work

Row | Structure (SMILES) | Inhibition of P‐gp (classification)
1 | OC(Cn1cncn1)(Cn1cncn1)c1ccc(F)cc1F [fluconazole] | devoid of P‐gp inhibitory effect
2 | CCC(C)n1ncn(-c2ccc(N3CCN(c4ccc(OCC5COC(Cn6cncn6)(c6ccc(Cl)cc6Cl)O5)cc4)CC3)cc2)c1=O (centres unmarked) [itraconazole] | strong dual inhibitor of CYP3A and P‐gp
